# Patent publication US20240100131A1, “NOVEL USE OF MPK38/MELK AS THERAPEUTIC AGENT FOR OBESITY OR METABOLIC DISEASES SPECIFIC TO MIDDLE-AGED MEN” (priority 2021, published 2024)
# Where a SMILES comes first, the peptide text is derived from it. The star is where a group is joined. Cbz = O=C(OCc1ccccc1)*
# Assays:
# MPK38 = assay: Immunoblot analysis of MPK38 stability and ubiquitination in adipocytes treated with DHT or E2; type: cell-based, mouse; conditions: for stability of MPK38: adipocytes of 4.5-month-old male and female mice, 10 nM, 24 hours, then cycloheximide 20 μg/ml; for endogenous ubiquitination of MPK38: adipocytes, regardless of gender
# Method: In order to determine whether or not sex hormones such as testosterone and estrogen affect the kinase activity and expression of MPK38, immunoblot analysis was performed on adipocytes derived from 4.5-month-old normal male and female mice treated with DHT and E2.
# MPK38-Mdm2 complex = assay: Endogenous MPK38-Mdm2 complex formation (immunoprecipitation/immunoblot) in adipocytes; type: cell-based, mouse; conditions: vs control group not treated with DHT or E2
# Method: Furthermore, since MPK38 physically interacts with Mdm2, whether or not DHT and E2 are involved in the decomposition of MPK38 mediated by Mdm2 was determined.
# MPK38-Trx complex = assay: Endogenous MPK38-Trx complex formation in adipocytes; type: cell-based, mouse; conditions: both females and males
# Method: (§1) In order to further determine whether or not testosterone increases the stability of MPK38, the effect of DHT on the formation of a complex of MPK38 with either ZPR9 or Trx was analyzed. The reason for this is that ZPR9 or Trx acts as a stabilizer or destabilizer of MPK38.
# ASK1/TGF-β/p53 signaling = assay: MPK38-dependent ASK1/TGF-β/p53 signaling in adipocytes treated with DHT or E2; type: cell-based, mouse; conditions: vs control group not treated with DHT or E2; H2O2, TGF-β1 or 5FU stimulation
# mouse hepatocytes = assay: Effects of DHT and E2 on lipid metabolism and MPK38 kinase activity in hepatocytes; type: cell-based; conditions: 10 nM each, compared with adipocytes
# MPK38-ZPR9 complex = assay: Endogenous MPK38-ZPR9 complex formation in adipocytes; type: cell-based, mouse; conditions: both females and males
# Method: as §1
# [1] = tested on: castrated MPK38−/− male mice; assay: Testosterone replacement in castrated male mice; type: in vivo, mouse
# Method: A mixture of ketamine (34 mg/kg), xylazine (6.8 mg/kg) and acepromazine (1.1 mg/kg) was dissolved in saline, and the mice were anesthetized using this solution, and then surgery was performed. The surgical site was shaved and washed, and then sterilized with 70% alcohol. For castration, after abdomen midline incision, castration was performed such that the testes and attached fat pads were left intact. The testes were removed through an incision, but the testicular ducts and blood vessels supplying the testes were ligated with sterile silk suture and the testicular fat pads were put back, followed by closure with sterile silk suture. For sham castration, the testes with attached fat pads were exposed and put back without organ extirpation after abdominal incision, and the incision was closed with sterile silk suture. For ovariectomy, after midline abdominal incision, the uterus, oviducts, and ovaries with the fat pads were left intact. The ovaries were removed through an incision, but the oviduct and blood vessels supplying the ovaries were ligated with sterile silk suture and the ovarian fat pads were put back, followed by closure with sterile silk suture. […] After surgery, mice were monitored until they are fully recovered from anesthesia. […]
Structure (SMILES),"stability of MPK38 on exposure to proteasome inhibitor (MPK38; 10 μM MG132, treated vs untreated group)",stability of MPK38 (MPK38),endogenous ubiquitination of MPK38 (MPK38),formation of endogenous MPK38-Mdm2 complex (MPK38-Mdm2 complex),formation of MPK38-Trx complex (MPK38-Trx complex),ASK1/TGF-β/p53 signaling (ASK1/TGF-β/p53 signaling),effects on lipid metabolism and MPK38 kinase activity in liver cells (mouse hepatocytes),formation of endogenous MPK38-ZPR9 complex (MPK38-ZPR9 complex),"effects of castration on metabolism after testosterone replacement ([1]; castrated male mice, T replacement (FIG. 14))","glucose or lipid metabolism ([1]; middle-aged (7 months old) MPK38−/− male mice, testosterone pellets 25 μg/day)"
CC(C)C[C@@H](C=O)NC(=O)[C@H](CC(C)C)NC(=O)[C@H](CC(C)C)NC(=O)OCc1ccccc1 [MG132] (Cbz-Leu-Leu-Leu-aldehyde),increase,,,,,,,,,
C[C@]12CC[C@@H]3c4ccc(O)cc4CC[C@H]3[C@@H]1CC[C@@H]2O [E2],,decreased,increased,increased,results opposite those of treatment with DHT,decreased,similar,results opposite those of treatment with DHT,,
C[C@]12CC[C@H]3[C@@H](CCC4=CC(=O)CC[C@@]43C)[C@@H]1CC[C@@H]2O [testosterone],,,,,,,,,effects opposite to all of these results,did not affect
C[C@]12CCC(=O)C[C@@H]1CC[C@@H]1[C@@H]2CC[C@]2(C)[C@@H](O)CC[C@@H]12 [DHT],,increased,decreased,decreased,decreased,increased,similar,increased,,
